Broadly, the MIC is the least concentration at which growth counts as inhibited.

Results on four compounds are retold here after ChEMBL document CHEMBL3044596, “Stagonolides G-I and modiolide A, nonenolides produced by Stagonospora cirsii, a potential mycoherbicide for Cirsium arvense” (J Nat Prod, 2008).

Series [1] relates to Cirsium arvense. Description: Herbicidal activity against Cirsium arvense (Canada thistle) assessed as induction of leaf necrosis at 1 mg/mL measured after 2 days post compound treatment by leaf disk-puncture bioassay. Format: functional, organism-based.
Series [2] deals with Cirsium arvense. Description: Herbicidal activity against Cirsium arvense (Canada thistle) assessed as leaf necrotic lesion diameter at 1 mg/mL measured after 72 hr post compound treatment by leaf disk-puncture bioassay. Format: functional.
For series [3], the system named is Cirsium arvense. Nature of the series: Herbicidal activity against Cirsium arvense (Canada thistle) assessed as induction of leaf necrosis measured after 2 days post compound treatment by leaf disk-puncture bioassay. Format: functional. To be noted: 48 h.
The next series deals with Radish. Description: Phytotoxicity activity against Raphanus sativus (radish) assessed as leaf necrotic lesion diameter at 1 mg/mL measured after 72 hr post compound treatment by leaf disk-puncture bioassay. The settings on record: in vivo. It is filed as organism-based.
The subject of series [4] is Cichorium intybus. Description: Phytotoxicity activity against Cichorium intybus (chicory) assessed as leaf necrotic lesion diameter at 1 mg/mL measured after 72 hr post compound treatment by leaf disk-puncture bioassay. Format: organism-based. The settings on record: in vivo.
In the next series the test system is Trifolium pratense. Nature of the series: Phytotoxicity activity against Trifolium pratense (red clover) assessed as leaf necrotic lesion diameter at 1 mg/mL measured after 72 hr post compound treatment by leaf disk-puncture bioassay. Format: organism-based. To be noted: in vivo.
Series [5] relates to Cichorium intybus. Nature of the series: Inhibition of root growth in Cichorium intybus (chicory) seedlings soaked in 1 mg/mL compound solutions for 1 hr relative to untreated control. Format: functional.
A further series relates to Aegopodium podagraria. Description: Phytotoxicity activity against Aegopodium podagraria (bishop's weed) assessed as leaf necrotic lesion diameter at 1 mg/mL measured after 72 hr post compound treatment by leaf disk-puncture bioassay. It is filed as organism-based. To be noted: in vivo.
The test system of another series is Elymus repens. Nature of the series: Phytotoxicity activity against Elymus repens (couch grass) assessed as leaf necrotic lesion diameter at 1 mg/mL measured after 72 hr post compound treatment by leaf disk-puncture bioassay. Format: organism-based. The settings on record: in vivo.
The next series relates to Zea mays. Description: Phytotoxicity activity against Zea mays (maize) assessed as leaf necrotic lesion diameter at 1 mg/mL measured after 72 hr post compound treatment by leaf disk-puncture bioassay. It is filed as organism-based. The settings on record: in vivo.
The subject of another series is Solanum lycopersicum. Description: Phytotoxicity activity against Solanum lycopersicum (tomato) assessed as leaf necrotic lesion diameter at 1 mg/mL measured after 72 hr post compound treatment by leaf disk-puncture bioassay. The settings on record: in vivo. It is filed as organism-based.

Molecules are shown by their SMILES. ≈ marks a conversion by molar mass, not a printed value. Calls of active or inactive are those of the source. No cut-off for these calls is given here.

In the case of `C[C@H]1OC(=O)CC[C@H](O)C/C=C\[C@H]1O`, the outcome in the series on Cirsium arvense [1] was inactive.
On the same count and under the same terms, with `C[C@@H]1C[C@H](O)/C=C\[C@@H](O)/C=C\C(=O)O1` the entry was “inactive”; with `C[C@@H]1C[C@H](O)/C=C/[C@@H](O)/C=C\C(=O)O1`, “inactive”.
Turning to `C[C@@H]1OC(=O)/C=C\[C@@H](O)/C=C/[C@@H]2O[C@H]12` [Stagonolide H], the Activity in the series with Cirsium arvense [2] is listed as 7.5 mm; in the series on Radish, < 4 mm; with Cichorium intybus [4] it was < 4 mm; in the series with Trifolium pratense, < 4 mm; in the series with Aegopodium podagraria it was < 4 mm; in the series on Elymus repens, < 4 mm. The Activity with Zea mays and in the series on Solanum lycopersicum was < 4 mm in each case. Also, the MIC in the series on Cirsium arvense [3] was 150 µM (≈ 29.4 µg/mL). In addition, in the series on Cichorium intybus [5], the “growth inhibition (GI)” value stood at 85%. Further, the outcome with Cirsium arvense [1] was Active.
